Experimental data from US10570131B2, “Heterocyclic compounds and their use in preventing or treating bacterial infections” (MUTABILIS, priority 2015, dated 2020).

Assays:
Assay type in all cases: cell-based
[1] = tested on: E. coli 190317; assay: MIC of ceftazidime alone and in combination with compounds (synergy), broth microdilution; settings: MIC of ceftazidime with compound fixed at 4 μg/mL; strain 190317 (TEM-1, SHV-12, CTX-M-15, OXA-1)
[2] = tested on: P. aeruginosa CIP105250; assay: microbe, parasite or virus in culture; settings: strain CIP105250 (OXA-15)
Protocol: (§1) Compounds of the present invention were assessed against genotyped bacterial strains alone or in combination with the β-lactam ceftazidime (CAZ). […] Briefly, compounds alone according to the invention were prepared in DMSO and spotted (2 μL each) on sterile polystyrene plates (Corning, 3788). […] Log phase bacterial suspensions were adjusted to a final density of 5×10^5 cfu/mL in cation-adjusted Mueller-Hinton broth (Becton-Dickinson) and added to each well (98 μL). Microplates were incubated for 16-20 h at 35° C. in ambient air. The MIC of the compounds was defined as the lowest concentration of said compounds that prevented bacterial growth as read by visual inspection.

[3] = tested on: K. pneumoniae 6299; assay: microbe, parasite or virus in culture; settings: strain 6299 (TEM-1, SHV-11, OXA-163)
Protocol: as §1

[4] = tested on: K. pneumoniae BAA-1898; assay: microbe, parasite or virus in culture; settings: strain BAA-1898 (TEM-1, SHV-11, SHV-12, KPC-2)
Protocol: as §1

[5] = tested on: E. coli 131119; assay: microbe, parasite or virus in culture; settings: strain 131119 (TEM-1, OXA-48)
Protocol: as §1

[6] = tested on: E. coli UFR18; assay: MIC of compounds alone, broth microdilution; settings: strain UFR18 (CTX-M-15, OXA-204)
Protocol: as §1

[7] = tested on: E. cloacae P99; assay: MIC of compounds alone, broth microdilution; settings: strain P99 (AmpC)
Protocol: as §1

[8] = tested on: E. coli 190317; assay: MIC of compounds alone, broth microdilution; settings: strain 190317 (TEM-1, SHV-12, CTX-M-15, OXA-1)
Protocol: as §1

[9] = tested on: E. cloacae UFR85; assay: MIC of compounds alone, broth microdilution; settings: strain UFR85 (TEM-1, CTX-M-15, derepressed AmpC)
Protocol: as §1

[10] = tested on: K. oxytoca UFR21; assay: MIC of compounds alone, broth microdilution; settings: strain UFR21 (TEM-1, CTX-M-15, OXA-48)
Protocol: as §1

[11] = tested on: E. coli UFR74; assay: MIC of compounds alone, broth microdilution; settings: strain UFR74 (SHV-1, DHA-1)
Protocol: as §1

[12] = tested on: K. pneumoniae UFR68; assay: MIC of compounds alone, broth microdilution; settings: strain UFR68 (TEM-1, SHV-11, CTX-M-15, KPC-3)
Protocol: as §1

[13] = tested on: E. coli UFR52; assay: MIC of compounds alone, broth microdilution; settings: strain UFR52 (TEM-1, SHV-12, IMP-8)
Protocol: as §1

[14] = tested on: K. pneumoniae UFR77; assay: MIC of compounds alone, broth microdilution; settings: strain UFR77 (CMY-2)
Protocol: as §1

[15] = tested on: E. cloacae UFR70; assay: MIC of compounds alone, broth microdilution; settings: strain UFR70 (TEM-1, CTX-M-15, CMY-2, OXA-1, Porin loss)
Protocol: as §1

[16] = tested on: P. aeruginosa CIP107051; assay: MIC of compounds alone, broth microdilution; settings: strain CIP107051 (TEM-24)
Protocol: as §1

[17] = tested on: E. coli RGN238; assay: MIC of compounds alone, broth microdilution; settings: strain RGN238 (OXA-1)
Protocol: as §1

[18] = tested on: C. murliniae 210102; assay: MIC of compounds alone, broth microdilution; settings: strain 210102 (VIM-4)
Protocol: as §1

[19] = tested on: K. pneumoniae UFR24; assay: MIC of compounds alone, broth microdilution; settings: strain UFR24 (TEM-1, SHV-2, SHV-11, OXA-1, OXA-48, OXA-47)
Protocol: as §1

[20] = tested on: E. cloacae UFR38; assay: MIC of compounds alone, broth microdilution; settings: strain UFR38 (CTX-M-15, NDM-1)
Protocol: as §1

[21] = tested on: E. coli UFR32; assay: MIC of compounds alone, broth microdilution; settings: strain UFR32 (TEM-1, VEB-1, OXA-10)
Protocol: as §1

[22] = tested on: K. pneumoniae 200047; assay: MIC of compounds alone, broth microdilution; settings: strain 200047 (TEM-1, SHV-32, CTX-M-15, OXA-1)
Protocol: as §1

[23] = tested on: E. coli UFR61O; assay: MIC of compounds alone, broth microdilution; settings: strain UFR61O (TEM-1, KPC-2)
Protocol: as §1

[24] = tested on: E. cloacae 260508; assay: MIC of compounds alone, broth microdilution; settings: strain 260508 (TEM-1, CTX-M-15)
Protocol: as §1

[25] = tested on: K. pneumoniae 160143; assay: MIC of compounds alone, broth microdilution; settings: strain 160143 (TEM-1, SHV-1, CTX-M-15, KPC-2, OXA-1)
Protocol: as §1

[26] = tested on: P. aeruginosa CIP105250; assay: MIC of ceftazidime alone and in combination with compounds (synergy), broth microdilution; settings: MIC of ceftazidime with compound fixed at 4 μg/mL; strain CIP105250 (OXA-15)
Protocol: as §1

[27] = tested on: K. pneumoniae 6299; assay: as above
Protocol: as §1

[28] = tested on: P. aeruginosa CIP107051; assay: as above; settings: MIC of ceftazidime with compound fixed at 4 μg/mL; strain CIP107051 (TEM-24)
Protocol: as §1

[29] = tested on: K. pneumoniae BAA-1898; assay: as above; settings: MIC of ceftazidime with compound fixed at 4 μg/mL; strain BAA-1898 (TEM-1, SHV-11, SHV-12, KPC-2)
Protocol: as §1

[30] = tested on: E. cloacae P99; assay: as above; settings: MIC of ceftazidime with compound fixed at 4 μg/mL; strain P99 (AmpC)
[31] = tested on: P. aeruginosa UFR48; assay: as above; settings: Pseudomonas aeruginosa, UFR48, read-out: MIC of CAZ
Protocol: as §1

SMILES: NCCON=C1C[C@@H](C(N)=O)N2C[C@@H]1N(OS(=O)(=O)[O-])C2=O.O=C(O)C(F)(F)F.[Na+] [Example 4, sodium and 2,2,2-trifluoroacetate [(2S, 5S)-4-(2-ammoniumethoxyimino)-2-carbamoyl-7-oxo-1,6-diazabicyclo[3.2.1]octan-6-yl] sulfate]
- MIC, combination of CAZ and compounds of the invention at 4 μg/mL [1]: <0.25 µg/mL
- MIC compounds of the invention alone [2]: >32 µg/mL
- MIC compounds of the invention alone [3]: >32 µg/mL
- MIC compounds of the invention alone [4]: >32 µg/mL
- MIC compounds of the invention alone [5]: >32 µg/mL
- MIC compounds of the invention alone [6]: 4 µg/mL
- MIC compounds of the invention alone [7]: 16 µg/mL
- MIC compounds of the invention alone [8]: 4 µg/mL
- MIC compounds of the invention alone [9]: >32 µg/mL
- MIC compounds of the invention alone [10]: >32 µg/mL
- MIC compounds of the invention alone [11]: >32 µg/mL
- MIC compounds of the invention alone [12]: >32 µg/mL
- MIC compounds of the invention alone [13]: 8 µg/mL
- MIC compounds of the invention alone [14]: >32 µg/mL
- MIC compounds of the invention alone [15]: >32 µg/mL
- MIC compounds of the invention alone [16]: 32 µg/mL
- MIC compounds of the invention alone [17]: >32 µg/mL
- MIC compounds of the invention alone [18]: >32 µg/mL
- MIC compounds of the invention alone [19]: >32 µg/mL
- MIC compounds of the invention alone [20]: 2 µg/mL
- MIC compounds of the invention alone [21]: 4 µg/mL
- MIC compounds of the invention alone [22]: >32 µg/mL
- MIC compounds of the invention alone [23]: >32 µg/mL
- MIC compounds of the invention alone [24]: 16 µg/mL
- MIC compounds of the invention alone [25]: >32 µg/mL
- MIC, combination of CAZ and compounds of the invention at 4 μg/mL [26]: 8 µg/mL
- MIC, combination of CAZ and compounds of the invention at 4 μg/mL ([27]; MIC of ceftazidime with compound fixed at 4 μg/mL, strain 6299 (TEM-1, SHV-11, OXA-163)): 0.25 µg/mL
- MIC, combination of CAZ and compounds of the invention at 4 μg/mL [28]: 8 µg/mL
- MIC, combination of CAZ and compounds of the invention at 4 μg/mL [29]: ≤0.125 µg/mL
- MIC, combination of CAZ and compounds of the invention at 4 μg/mL [30]: 0.25 µg/mL

SMILES: CC(C)(O/N=C(\C(=O)N[C@@H]1C(=O)N2C(C(=O)[O-])=C(C[n+]3ccccc3)CS[C@H]12)c1csc(N)n1)C(=O)O [CAZ, ceftazidime, reference compound]
- MIC [31]: 256 µg/mL
- MIC ([27]; Klebsiella pneumoniae, 6299, read-out: MIC of CAZ): 256 µg/mL
